Results reported in paper PMC5218480 (PLoS ONE, 2017).

Tested on: MV-4-11 cells
Test: Gene expression microarray analysis (Affymetrix PrimeView) and GSEA
Format: cell-based, human
Design: RFU PODN (11730768_x_at) / Fold change /veh PODN (11730768_x_at) / RFU LINC00158 (11744669_a_at) / Fold change /veh LINC00158 (11744669_a_at) / RFU DUSP10 (11751237_a_at) / Fold change /veh DUSP10 (11751237_a_at) / RFU ID3 (11757404_x_at) / Fold change /veh ID3 (11757404_x_at) / RFU PLEKHG5 (11737974_s_at) / Fold change /veh PLEKHG5 (11737974_s_at) / RFU LRRC4B (11730491_at) / Fold change /veh LRRC4B (11730491_at) / RFU GIMAP4 (11747438_a_at) / Fold change /veh GIMAP4 (11747438_a_at) / RFU KRT8 (11758183_x_at) / Fold change /veh KRT8 (11758183_x_at) / RFU CNN1 (11734310_a_at) / Fold change /veh CNN1 (11734310_a_at) / RFU VPS37D (11726825_at) / Fold change /veh VPS37D (11726825_at) / RFU C10orf10 (11716522_x_at) / Fold change /veh C10orf10 (11716522_x_at) / RFU KIR2DL2 /// KIR2DL4 /// KIR2DL5A /// KIR2DL5B /// KIR2DS1 /// KIR2DS2 /// KIR2DS3 /// KIR2DS4 /// KIR3DL3 /// KIR3DL3 /// KIR3DS1 (11738374_at) / Fold change /veh KIR2DL2 /// KIR2DL4 /// KIR2DL5A /// KIR2DL5B /// KIR2DS1 /// KIR2DS2 /// KIR2DS3 /// KIR2DS4 /// KIR3DL3 /// KIR3DL3 /// KIR3DS1 (11738374_at) / RFU C1QL1 (11718748_at) / Fold change /veh C1QL1 (11718748_at) / RFU TMPRSS4 (11747572_a_at) / Fold change /veh TMPRSS4 (11747572_a_at) / RFU HAMP (11756126_x_at) / Fold change /veh HAMP (11756126_x_at) / RFU RNFT2 (11725882_a_at) / Fold change /veh RNFT2 (11725882_a_at) / RFU NR4A2 (11747474_a_at) / Fold change /veh NR4A2 (11747474_a_at) / RFU ABCC12 (11746883_a_at) / Fold change /veh ABCC12 (11746883_a_at) / RFU TMEM136 (11760407_x_at) / Fold change /veh TMEM136 (11760407_x_at) / RFU CLDN22 /// WWC2 (11732394_at) / Fold change /veh CLDN22 /// WWC2 (11732394_at) / RFU HLA-DPB1 (11760878_x_at) / Fold change /veh HLA-DPB1 (11760878_x_at) / RFU SPINT1 (11716480_a_at) / Fold change /veh SPINT1 (11716480_a_at) / RFU GAP43 (11754022_s_at) / Fold change /veh GAP43 (11754022_s_at) / RFU A4GNT (11735810_at) / Fold change /veh A4GNT (11735810_at) / RFU PRB3 (11715151_x_at) / Fold change /veh PRB3 (11715151_x_at) / RFU TUBB4B (11761932_at) / Fold change /veh TUBB4B (11761932_at) / RFU CAPN14 (11732068_a_at) / Fold change /veh CAPN14 (11732068_a_at) / RFU TMCC2 (11721928_a_at) / Fold change /veh TMCC2 (11721928_a_at) / RFU IRGQ (11745062_a_at) / Fold change /veh IRGQ (11745062_a_at) / RFU FAM174B (11720279_a_at) / Fold change /veh FAM174B (11720279_a_at) / RFU TMPRSS4 (11748680_a_at) / Fold change /veh TMPRSS4 (11748680_a_at) / RFU FAM212B (11763350_a_at) / Fold change /veh FAM212B (11763350_a_at) / RFU PLEKHG5 (11743358_a_at) / Fold change /veh PLEKHG5 (11743358_a_at) / RFU ZSCAN30 (11745921_a_at) / Fold change /veh ZSCAN30 (11745921_a_at) / RFU CMKLR1 (11741424_a_at) / Fold change /veh CMKLR1 (11741424_a_at) / RFU LOC101060620 /// MAPK8IP1 (11723275_at) / Fold change /veh LOC101060620 /// MAPK8IP1 (11723275_at) / RFU SPTSSB (11747773_x_at) / Fold change /veh SPTSSB (11747773_x_at) / RFU PRSS12 (11739890_at) / Fold change /veh PRSS12 (11739890_at) / RFU BIN1 (11741810_x_at) / Fold change /veh BIN1 (11741810_x_at) / RFU WNT11 (11732464_a_at) / Fold change /veh WNT11 (11732464_a_at) / RFU C10orf10 (11716521_a_at) / Fold change /veh C10orf10 (11716521_a_at) / RFU C5orf56 (11738089_at) / Fold change /veh C5orf56 (11738089_at) / RFU CYB561 (11721691_x_at) / Fold change /veh CYB561 (11721691_x_at) / RFU ANKRD19P (11752326_a_at) / Fold change /veh ANKRD19P (11752326_a_at) / RFU OR2T12 /// OR2T33 /// OR2T8 (11738714_s_at) / Fold change /veh OR2T12 /// OR2T33 /// OR2T8 (11738714_s_at) / RFU VCAN (11748164_a_at) / Fold change /veh VCAN (11748164_a_at) / RFU JSRP1 (11732532_at) / Fold change /veh JSRP1 (11732532_at) / RFU KRTAP10-11 (11738290_x_at) / Fold change /veh KRTAP10-11 (11738290_x_at) / RFU MYO3A (11730013_a_at) / Fold change /veh MYO3A (11730013_a_at) / RFU EBF3 (11725865_a_at) / Fold change /veh EBF3 (11725865_a_at) / RFU CAMK2N1 (11719241_x_at) / Fold change /veh CAMK2N1 (11719241_x_at) / RFU C5orf56 (11738088_a_at) / Fold change /veh C5orf56 (11738088_a_at) / RFU OLFML3 (11715873_a_at) / Fold change /veh OLFML3 (11715873_a_at) / RFU LOC100653217 /// NTM (11731650_a_at) / Fold change /veh LOC100653217 /// NTM (11731650_a_at) / RFU MAPK11 (11762145_a_at) / Fold change /veh MAPK11 (11762145_a_at) / RFU FIZ1 (11724087_x_at) / Fold change /veh FIZ1 (11724087_x_at) / RFU OASL (11726364_x_at) / Fold change /veh OASL (11726364_x_at) / RFU SOX15 (11748057_x_at) / Fold change /veh SOX15 (11748057_x_at) / RFU CD79A (11719716_a_at) / Fold change /veh CD79A (11719716_a_at) / RFU HIST1H1D (11736915_at) / Fold change /veh HIST1H1D (11736915_at) / RFU CASKIN2 (11723855_a_at) / Fold change /veh CASKIN2 (11723855_a_at) / RFU LOC730098 (11760151_x_at) / Fold change /veh LOC730098 (11760151_x_at) / RFU OR4N2 (11742367_at) / Fold change /veh OR4N2 (11742367_at) / RFU PRRT2 (11749266_a_at) / Fold change /veh PRRT2 (11749266_a_at) / RFU SNX32 (11753110_a_at) / Fold change /veh SNX32 (11753110_a_at) / RFU CDHR5 (11726645_a_at) / Fold change /veh CDHR5 (11726645_a_at) / RFU RCAN1 (11760418_a_at) / Fold change /veh RCAN1 (11760418_a_at) / RFU FAM167A (11723789_a_at) / Fold change /veh FAM167A (11723789_a_at) / RFU FAM26E (11764081_at) / Fold change /veh FAM26E (11764081_at) / RFU ISYNA1 (11749810_s_at) / Fold change /veh ISYNA1 (11749810_s_at) / RFU ACY1 (11761880_at) / Fold change /veh ACY1 (11761880_at) / RFU 11764098_at / Fold change /veh 11764098_at / RFU SAMD14 (11745864_x_at) / Fold change /veh SAMD14 (11745864_x_at) / RFU NPB (11741838_a_at) / Fold change /veh NPB (11741838_a_at) / RFU TMPRSS6 (11731388_a_at) / Fold change /veh TMPRSS6 (11731388_a_at) / RFU KRTAP10-2 (11738614_at) / Fold change /veh KRTAP10-2 (11738614_at) / RFU ARHGAP8 /// PRR5-ARHGAP8 (11727945_x_at) / Fold change /veh ARHGAP8 /// PRR5-ARHGAP8 (11727945_x_at) / RFU KRTAP5-7 /// NADSYN1 (11734609_at) / Fold change /veh KRTAP5-7 /// NADSYN1 (11734609_at) / RFU RASL12 (11751679_a_at) / Fold change /veh RASL12 (11751679_a_at) / RFU CDKN2B (11736163_a_at) / Fold change /veh CDKN2B (11736163_a_at) / RFU PRF1 (11729649_at) / Fold change /veh PRF1 (11729649_at) / RFU, ZNF638 /// ZNF638-IT1 / Fold change vs veh, ZNF638 /// ZNF638-IT1 / RFU, PANK3 / Fold change vs veh, PANK3 / RFU, SH3YL1 / Fold change vs veh, SH3YL1 / RFU, ZEB2 / Fold change vs veh, ZEB2 / RFU, NRIP1 / Fold change vs veh, NRIP1 / RFU, PTTG1IP / Fold change vs veh, PTTG1IP / RFU, CAPN2 / Fold change vs veh, CAPN2 / RFU, MED14 / Fold change vs veh, MED14 / RFU, SNORA58 / Fold change vs veh, SNORA58 / RFU, C1orf63 / Fold change vs veh, C1orf63 / RFU, LRRFIP1 / Fold change vs veh, LRRFIP1 / RFU, NDUFAF7 / Fold change vs veh, NDUFAF7 / RFU, SLC12A2 / Fold change vs veh, SLC12A2 / RFU, IBTK / Fold change vs veh, IBTK / RFU, ESF1 / Fold change vs veh, ESF1 / Fold change vs veh, TMEM50B / RFU, TAOK1 / Fold change vs veh, TAOK1 / RFU, ACBD3 / Fold change vs veh, ACBD3 / RFU, TMA16 / Fold change vs veh, TMA16 / RFU, RWDD3 / Fold change vs veh, RWDD3 / RFU, BCAT1 / Fold change vs veh, BCAT1 / RFU, EDEM3 / Fold change vs veh, EDEM3 / RFU, TMEM33 / Fold change vs veh, TMEM33 / RFU, WDR75 / Fold change vs veh, WDR75 / RFU, AHCTF1 / Fold change vs veh, AHCTF1 / RFU, TFRC / Fold change vs veh, TFRC / RFU, ZDHHC17 / Fold change vs veh, ZDHHC17 / RFU, NOM1 / Fold change vs veh, NOM1 / RFU, ARL8B / Fold change vs veh, ARL8B / RFU, ZBTB11 / Fold change vs veh, ZBTB11 / RFU, TAMM41 / Fold change vs veh, TAMM41 / RFU, KIAA1704 /// LOC100996395 / Fold change vs veh, KIAA1704 /// LOC100996395 / RFU, ING1 / Fold change vs veh, ING1 / RFU, TRMT61B / Fold change vs veh, TRMT61B / RFU, FUBP3 / Fold change vs veh, FUBP3 / RFU, TP53 / Fold change vs veh, TP53 / RFU, TNKS2 / Fold change vs veh, TNKS2 / RFU, ZFP14 / Fold change vs veh, ZFP14 / RFU, ACTR2 / Fold change vs veh, ACTR2 / RFU, PPP3R1 / Fold change vs veh, PPP3R1 / RFU, PIK3R1 / Fold change vs veh, PIK3R1 / RFU, HNRNPA1 / Fold change vs veh, HNRNPA1 / RFU, RNF170 / Fold change vs veh, RNF170 / RFU, ZNF28 / Fold change vs veh, ZNF28 / RFU, RNGTT / Fold change vs veh, RNGTT / RFU, OGT / Fold change vs veh, OGT / RFU, BRD1 / Fold change vs veh, BRD1 / RFU, MARS / Fold change vs veh, MARS / RFU, ZNF655 / Fold change vs veh, ZNF655 / RFU, FAHD1 / Fold change vs veh, FAHD1 / RFU, BDP1 / Fold change vs veh, BDP1 / RFU, LRRCC1 / Fold change vs veh, LRRCC1 / RFU, ARID1A / Fold change vs veh, ARID1A / RFU, ZNF146 / Fold change vs veh, ZNF146 / RFU, ZNF330 / Fold change vs veh, ZNF330 / RFU, GPN3 / Fold change vs veh, GPN3 / RFU, C9orf123 / Fold change vs veh, C9orf123 / RFU, N4BP2L2 / Fold change vs veh, N4BP2L2 / RFU, ARFIP1 / Fold change vs veh, ARFIP1 / RFU, FAM179B / Fold change vs veh, FAM179B / RFU, BCL10 / Fold change vs veh, BCL10 / RFU, UHRF1BP1L / Fold change vs veh, UHRF1BP1L / RFU, BET1 / Fold change vs veh, BET1 / RFU, CNOT2 / Fold change vs veh, CNOT2 / RFU, ZNF268 / Fold change vs veh, ZNF268 / Fold change vs veh, ZNF507 / RFU, DGCR2 / Fold change vs veh, DGCR2 / RFU, WDSUB1 / Fold change vs veh, WDSUB1 / Fold change vs veh, HSP90B1 /// MIR3652 / RFU, ADSS / Fold change vs veh, ADSS / RFU, GK / Fold change vs veh, GK / RFU, ZNF148 / Fold change vs veh, ZNF148 / RFU, TAF9 / Fold change vs veh, TAF9 / RFU, SLC1A5 / Fold change vs veh, SLC1A5 / RFU, SLMO2 / Fold change vs veh, SLMO2 / RFU, ABCC4 / Fold change vs veh, ABCC4 / RFU, LOC101060439 /// RAP1B / Fold change vs veh, LOC101060439 /// RAP1B / RFU, RFX7 / Fold change vs veh, RFX7 / RFU, GTPBP10 / Fold change vs veh, GTPBP10 / RFU, CNEP1R1 / Fold change vs veh, CNEP1R1 / RFU, BIVM-ERCC5 /// ERCC5 / Fold change vs veh, BIVM-ERCC5 /// ERCC5 / RFU, ILF3 / Fold change vs veh, ILF3 / RFU 11762660_at / Fold change /veh 11762660_at / RFU VCAN (11757783_s_at) / Fold change /veh VCAN (11757783_s_at) / RFU DDX43 (11728927_at) / Fold change /veh DDX43 (11728927_at) / RFU KRT8 (11758188_x_at) / Fold change /veh KRT8 (11758188_x_at) / RFU NKD1 (11759106_at) / Fold change /veh NKD1 (11759106_at) / RFU SRD5A1 (11742802_a_at) / Fold change /veh SRD5A1 (11742802_a_at) / RFU TPSAB1 /// TPSB2 (11721975_s_at) / Fold change /veh TPSAB1 /// TPSB2 (11721975_s_at) / RFU GSTM3 (11746129_a_at) / Fold change /veh GSTM3 (11746129_a_at) / RFU IL23R (11737362_x_at) / Fold change /veh IL23R (11737362_x_at) / RFU TMEM51 (11727254_a_at) / Fold change /veh TMEM51 (11727254_a_at) / RFU PIWIL2 (11732686_x_at) / Fold change /veh PIWIL2 (11732686_x_at) / RFU ORM1 (11744905_x_at) / Fold change /veh ORM1 (11744905_x_at) / RFU CCDC152 (11743942_at) / Fold change /veh CCDC152 (11743942_at) / RFU ECM1 (11717891_a_at) / Fold change /veh ECM1 (11717891_a_at) / RFU IL23R (11748794_a_at) / Fold change /veh IL23R (11748794_a_at) / RFU TNFAIP8L3 (11732012_x_at) / Fold change /veh TNFAIP8L3 (11732012_x_at) / RFU MBOAT4 (11741988_at) / Fold change /veh MBOAT4 (11741988_at) / RFU 11764193_at / Fold change /veh 11764193_at / RFU TMEM53 (11763286_at) / Fold change /veh TMEM53 (11763286_at) / RFU MAGEB2 (11727129_at) / Fold change /veh MAGEB2 (11727129_at) / RFU TMEM200A (11744735_a_at) / Fold change /veh TMEM200A (11744735_a_at) / RFU CCDC152 (11751479_a_at) / Fold change /veh CCDC152 (11751479_a_at) / RFU FAM211A (11726209_a_at) / Fold change /veh FAM211A (11726209_a_at) / RFU RGS16 (11746705_a_at) / Fold change /veh RGS16 (11746705_a_at) / RFU VCAN (11755009_s_at) / Fold change /veh VCAN (11755009_s_at) / RFU RHOB (11743442_s_at) / Fold change /veh RHOB (11743442_s_at) / RFU RGS16 (11720943_a_at) / Fold change /veh RGS16 (11720943_a_at) / RFU RGS16 (11720944_at) / Fold change /veh RGS16 (11720944_at) / RFU, VPS4B / Fold change vs veh, VPS4B / RFU, CREB1 / Fold change vs veh, CREB1 / RFU, DNAJC13 / Fold change vs veh, DNAJC13 / RFU, GNAQ / Fold change vs veh, GNAQ / RFU, CDK5R1 / Fold change vs veh, CDK5R1 / RFU, ZRANB3 / Fold change vs veh, ZRANB3 / RFU, CUL4A / Fold change vs veh, CUL4A / RFU, CCNY / Fold change vs veh, CCNY / RFU, UFL1 / Fold change vs veh, UFL1 / RFU, COG3 / Fold change vs veh, COG3 / RFU, DIAPH2 / Fold change vs veh, DIAPH2 / RFU, SKA2 / Fold change vs veh, SKA2 / RFU, AFF3 / Fold change vs veh, AFF3 / RFU, LMF1 / Fold change vs veh, LMF1 / RFU, IPO11 / Fold change vs veh, IPO11 / RFU, DFFB / Fold change vs veh, DFFB / RFU, FOXP1 / Fold change vs veh, FOXP1 / RFU, CARD8 / Fold change vs veh, CARD8 / RFU, STRN3 / Fold change vs veh, STRN3 / RFU, ADK / Fold change vs veh, ADK / RFU, RASSF2 / Fold change vs veh, RASSF2 / RFU, WIPF1 / Fold change vs veh, WIPF1 / RFU, LARP1B / Fold change vs veh, LARP1B / RFU, RASA1 / Fold change vs veh, RASA1 / RFU, RB1 / Fold change vs veh, RB1 / RFU, PPFIA1 / Fold change vs veh, PPFIA1 / RFU, MAT2A / Fold change vs veh, MAT2A / RFU, CCT5 / Fold change vs veh, CCT5 / RFU, WDR92 / Fold change vs veh, WDR92 / RFU, CUX1 / Fold change vs veh, CUX1 / RFU, TTC7A / Fold change vs veh, TTC7A / RFU, TMEM135 / Fold change vs veh, TMEM135 / RFU, DEPTOR / Fold change vs veh, DEPTOR / RFU, CPM / Fold change vs veh, CPM / RFU, DNAJB6 / Fold change vs veh, DNAJB6 / RFU, CACNA2D3 / Fold change vs veh, CACNA2D3 / RFU, DTX4 / Fold change vs veh, DTX4 / RFU, TFCP2 / Fold change vs veh, TFCP2 / RFU, GMCL1 /// GMCL1P1 / Fold change vs veh, GMCL1 /// GMCL1P1 / RFU, AEBP2 / Fold change vs veh, AEBP2 / RFU, SNHG1 /// SNORD22 /// SNORD25 /// SNORD26 /// SNORD27 /// SNORD28 /// SNORD29 /// SNORD31 / Fold change vs veh, SNHG1 /// SNORD22 /// SNORD25 /// SNORD26 /// SNORD27 /// SNORD28 /// SNORD29 /// SNORD31 / Fold change (Aza/veh), C12orf56 (ProbeSet 11735607_a_at) / Fold change (ACY-1035/veh), C12orf56 (ProbeSet 11735607_a_at) / Fold change (Aza/veh), FGFR1OP (ProbeSet 11751329_s_at) / Fold change (ACY-1035/veh), FGFR1OP (ProbeSet 11751329_s_at) / Fold change (Aza/veh), VPS36 (ProbeSet 11739960_a_at) / Fold change (ACY-1035/veh), VPS36 (ProbeSet 11739960_a_at) / RFU SYPL1 (11715823_x_at) / Fold change /veh SYPL1 (11715823_x_at) / RFU IGFBP7 (11715501_s_at) / Fold change /veh IGFBP7 (11715501_s_at) / RFU REEP3 (11722064_at) / Fold change /veh REEP3 (11722064_at) / RFU IGLL1 (11728026_x_at) / Fold change /veh IGLL1 (11728026_x_at): dose or concentration left out as unconfirmed
Details: MV-4-11 cells, 48 hours

How did the “Fold change /veh VCAN (11748164_a_at)” value turn out when Nc1ccc(-c2cccs2)cc1NC(=O)c1ccc2c(c1)cc(C1CC1)n2CCN1CCOCC1 [ACY-1035] was run?
Its value is 1.07.
